Results published in patent US20050112562A1, “Inhibition of retroviral replication through modulation of the host cell ubiquitylation” (Rigel Pharmaceuticals, Inc., priority 2003, published 2005).
Where a SMILES comes first, the peptide text is derived from it. [ ]: non-standard residue; d: D form. The star is where a group is joined. Nle = CCCC[C@H](N)C(=O)O; Cbz = O=C(OCc1ccccc1)*

Key:
Format in all cases: cell-based
[1] = test system: vif-mediated degradation of the luciferase/apobec3G fusion protein in HeLa cells; experiment: co-transfection of luciferase/apobec3G and vif constructs at varied ratios, luciferase activity (FIG. 4); details: for luciferase activity: 10 μM or 20 μM inhibitor, luciferase/apobec3G:vif 50:1 (tested 2:1, 25:1, 50:1, 100:1)
Protocol: Cells were co-transfected with the luciferase/apobec3G and vif constructs at relative concentrations of 2:1, 25:1, 50:1 and 100:1 (luciferase/apobec3G:vif) in the presence or absence of 10 μM or 20 μM MG132 or ALLN, known inhibitors of proteosome-mediated protein degradation.

[2] = test system: vif-mediated degradation of the luciferase/apobec3G fusion protein; experiment: transient luciferase/apobec3G fusion reporter with co-introduced vif construct (chemiluminescence, western blot); details: Phoenix and HeLa cells; band in final lane of each western blot
Text: A construct encoding a luciferase/apobec3G fusion protein was introduced into Phoenix and HeLa cells and transient expression of the luciferase/apobec3G fusion protein was monitored by detecting chemiluminescence. Results were normalized to the number of cells assayed. […] The gels shown at the top of both FIGS. 3A and 3B show results obtained from western blots of cell extracts using antibodies. Tesults obtained using anti-apobec3G and anti-lactate dehydrogenase antibodies are indicated as “3G” and “LDH”, respectively.
This phenomenon is inhibited by adding MG132, a known inhibitor of proteosome-mediated protein degradation (see the band observed in the final lane of each of the western blots). Cells containing both vif and a luciferase/apobec3G reporter can therefore be used to test agents for vif-inhibitory activity.

vif activity = experiment: vif expressed from different vectors with luciferase/apobec3G in a cell (FIGS. 5A-5E); details: vif from pCMV, pcDNA6, pcDNA6 CTE, pEF6, pEF6 CTE constructs

Structure (SMILES)	luciferase activity [1]	vif-caused decrease in luciferase activity / degradation of the luciferase/apobec3G fusion protein [2]	modulation of vif activity (vif activity)	activity of an apobec3G-luciferase fusion ([1]; in the presence of apobec3G/vif in HeLa cells (FIG. 4 legend))
CCCC[C@@H](C=O)NC(=O)[C@H](CC(C)C)NC(=O)[C@H](CC(C)C)NC(C)=O [ALLN] (Ac-Leu-Leu-[Nle]-aldehyde)	maximally increased luciferase activity			
CC(C)C[C@@H](C=O)NC(=O)[C@H](CC(C)C)NC(=O)[C@H](CC(C)C)NC(=O)OCc1ccccc1 [MG132] (Cbz-Leu-Leu-Leu-aldehyde)	maximally increased luciferase activity	inhibited	could be modulated	increased activity
